# Measurements reported in PubChem BioAssay AID212 (DTP/NCI, 2004).
# Several values for one entry are separate records, joined by “and”; a condition that tells them apart may be missing. Equal values may be shown once. Records with an inconclusive call do not appear.
# Tested on: BDF1 mice, colon carcinoma 38 sc, T/C %
# Test: NCI In Vivo Anticancer Drug Screen. Data for tumor model Colon Carcinoma 38 (subcutaneous) in B6D2F1 (BDF1) mice
# Details: endpoint: median tumor weight (est.), higher = larger tumour
# Outline: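 T/C readout: treated group (T) measurement over vehicle control group (C) measurement. Endpoint is survival or tumor size in mice bearing a transplanted tumor.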
# [1] = dose: 12.5 mg/kg/injection, schedule: Q07DX002 (ip), vehicle: saline with Tween-80
# [2] = dose: 25.0 mg/kg/injection, schedule: Q07DX002 (ip), vehicle: saline with Tween-80
# [3] = dose: 50.0 mg/kg/injection, schedule: Q07DX002 (ip), vehicle: saline with Tween-80
# [4] = dose: 200.0 mg/kg/injection, schedule: Q07DX002 (ip), vehicle: saline with Tween-80
# [5] = dose: 100.0 mg/kg/injection, schedule: Q07DX002 (ip), vehicle: saline with Tween-80
# [6] = dose: 400.0 mg/kg/injection, schedule: Q07DX002 (ip), vehicle: saline with Tween-80
compound,measurement,setting,value
CN=S(=O)(OCCCCCOS(=O)(=NC)c1ccccc1)c1ccccc1 (centres undefined),T/C,[1],58 % of control
same,T/C,[2],74 % of control
same,T/C,[3],69 % of control
same,T/C,[4],59 % of control
CC(=O)OCC1OC([S-])C(OC(C)=O)C(OC(C)=O)C1OC(C)=O.CC[PH+](CC)CC.CC[PH+](CC)CC.[Au].[Au] (centres undefined),T/C,"dose: 2.5 mg/kg/injection, schedule: Q07DX002 (ip), vehicle: Klucel (hydroxypropylcellulose) (HPC)",99 % of control
same,T/C,"dose: 10.0 mg/kg/injection, schedule: Q07DX002 (ip), vehicle: Klucel (hydroxypropylcellulose) (HPC)",89 % of control and 93 % of control
COc1cc(Cl)ccc1C,T/C,[1],99 % of control
same,T/C,[2],71 % of control
same,T/C,[3],68 % of control
same,T/C,[5],82 % of control
same,T/C,[4],89 % of control
same,T/C,[6],89 % of control
BrC1c2cccc3cccc(c23)C1Br (centres undefined),T/C,[1],103 % of control
same,T/C,[2],117 % of control and 120 % of control
same,T/C,[5],97 % of control and 107 % of control
same,T/C,[4],108 % of control and 111 % of control
same,T/C,[6],85 % of control
CC(=O)OC1C2OC3C=C(C)CCC3(CO)C(C)(C1OC(C)=O)C21CO1 (centres undefined),T/C,"dose: 0.5 mg/kg/injection, schedule: Q07DX003 (ip), vehicle: saline",50 % of control and 61 % of control
same,T/C,"dose: 1.0 mg/kg/injection, schedule: Q07DX003 (ip), vehicle: saline",87 % of control and 101 % of control
same,T/C,"dose: 2.0 mg/kg/injection, schedule: Q07DX003 (ip), vehicle: saline",111 % of control and 117 % of control
same,T/C,"dose: 2.5 mg/kg/injection, schedule: Q01DX001 (ip), vehicle: saline",266 % of control
same,T/C,"dose: 4.0 mg/kg/injection, schedule: Q07DX003 (ip), vehicle: saline",69 % of control and 75 % of control
same,T/C,"dose: 5.0 mg/kg/injection, schedule: Q01DX001 (ip), vehicle: saline",231 % of control
same,T/C,"dose: 10.0 mg/kg/injection, schedule: Q01DX001 (ip), vehicle: saline",173 % of control
Cc1ncc(CNC(=O)N(CCCl)N=O)c(N)n1,T/C,"dose: 6.25 mg/kg/injection, schedule: Q07DX003 (ip), vehicle: saline",82 % of control
same,T/C,"dose: 12.5 mg/kg/injection, schedule: Q07DX002 (ip), vehicle: Klucel (hydroxypropylcellulose) (HPC)",73 % of control
same,T/C,"dose: 12.5 mg/kg/injection, schedule: Q07DX003 (ip), vehicle: saline",88 % of control
same,T/C,"dose: 25.0 mg/kg/injection, schedule: Q07DX002 (ip), vehicle: Klucel (hydroxypropylcellulose) (HPC)",32 % of control
same,T/C,"dose: 25.0 mg/kg/injection, schedule: Q07DX003 (ip), vehicle: saline",31 % of control
COC1=CC(=O)N(C(=O)C2CSC(C(CO)NC(=O)c3csc(/C=N/O)n3)=N2)C1 (centres undefined),T/C,"dose: 50.0 mg/kg/injection, schedule: Q07DX002 (ip), vehicle: Klucel (hydroxypropylcellulose) (HPC)",114 % of control
same,T/C,"dose: 100.0 mg/kg/injection, schedule: Q07DX002 (ip), vehicle: Klucel (hydroxypropylcellulose) (HPC)",110 % of control
same,T/C,"dose: 200.0 mg/kg/injection, schedule: Q07DX002 (ip), vehicle: Klucel (hydroxypropylcellulose) (HPC)",150 % of control
same,T/C,"dose: 400.0 mg/kg/injection, schedule: Q07DX002 (ip), vehicle: Klucel (hydroxypropylcellulose) (HPC)",88 % of control
CCOC(=O)C(C)(C)Oc1ccc(Cl)cc1,T/C,[1],60 % of control
same,T/C,[3],94 % of control and 100 % of control
same,T/C,[4],110 % of control
same,T/C,[6],86 % of control
O=C1c2ccccc2C(=O)c2c(NCCNCCO)ccc(O)c21,T/C,"dose: 5.0 mg/kg/injection, schedule: Q07DX002 (ip), vehicle: suspension in saline",79 % of control and 95 % of control
same,T/C,"dose: 10.0 mg/kg/injection, schedule: Q07DX002 (ip), vehicle: suspension in saline",94 % of control and 99 % of control
same,T/C,"dose: 40.0 mg/kg/injection, schedule: Q07DX002 (ip), vehicle: suspension in saline",90 % of control and 96 % of control and 106 % of control
same,T/C,"dose: 320.0 mg/kg/injection, schedule: Q07DX002 (ip), vehicle: suspension in saline",74 % of control
CC(=O)OCC1OC(OC(C)=O)C(NC(=O)N(CCCl)N=O)C(OC(C)=O)C1OC(C)=O (centres undefined),T/C,"dose: 0.75 mg/kg/injection, schedule: Q07DX002 (ip), vehicle: Klucel (hydroxypropylcellulose) (HPC)",100 % of control
same,T/C,"dose: 1.5 mg/kg/injection, schedule: Q07DX002 (ip), vehicle: Klucel (hydroxypropylcellulose) (HPC)",82 % of control and 96 % of control
same,T/C,"dose: 3.0 mg/kg/injection, schedule: Q07DX002 (ip), vehicle: Klucel (hydroxypropylcellulose) (HPC)",64 % of control
